pIC50: −log10 of the molar value. Where two headings read alike, the source gives them in different places.
Key:
ovine PGHS-1 = target: T1, ovine PGHS-1 (Ovis aries, UniProt P05979); assay: Time- and concentration-dependent inhibition of ovine PGHS-1, TLC assay (3 h preincubation); type: biochemical; conditions: for pIC50: 3 h at room temperature; for inhibition of PGHS-1 (in words): table footnotes
T1 construct: PGHS-1 was purified from sheep seminal vesicles as described earlier; tissue Oxford Biomedical Research, Inc. (supplier of the sheep seminal vesicles); host or cells: sheep seminal vesicles
T1 sequence (P05979 25-600): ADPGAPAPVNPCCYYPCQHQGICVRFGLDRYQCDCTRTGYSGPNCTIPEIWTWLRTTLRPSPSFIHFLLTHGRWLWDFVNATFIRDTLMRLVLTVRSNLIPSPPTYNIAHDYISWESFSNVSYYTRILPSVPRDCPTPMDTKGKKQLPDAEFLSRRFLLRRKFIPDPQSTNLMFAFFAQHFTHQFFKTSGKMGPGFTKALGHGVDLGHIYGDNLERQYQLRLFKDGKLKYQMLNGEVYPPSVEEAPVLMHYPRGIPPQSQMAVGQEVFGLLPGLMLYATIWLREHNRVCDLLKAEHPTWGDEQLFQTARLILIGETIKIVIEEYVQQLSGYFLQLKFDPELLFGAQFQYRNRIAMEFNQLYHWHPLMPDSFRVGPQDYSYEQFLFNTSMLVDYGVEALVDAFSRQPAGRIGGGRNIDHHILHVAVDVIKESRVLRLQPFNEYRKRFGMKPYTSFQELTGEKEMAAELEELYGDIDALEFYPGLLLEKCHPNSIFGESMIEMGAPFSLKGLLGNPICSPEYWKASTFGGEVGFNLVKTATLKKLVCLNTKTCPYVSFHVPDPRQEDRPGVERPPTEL
Protocol: (§1) Cyclooxygenase activity of ovine PGHS-1 (22 nM) or human PGHS-2 (88 nM) was assayed by TLC. Reaction mixtures of 200 μL consisted of hematin-reconstituted protein in 100 mM Tris-HCl, pH 8.0, 500 μM phenol, and [1-^14 C]arachidonic acid (50 μM, 57 mCi/mmol). For the time-dependent inhibition assay, hematin-reconstituted PGHS-1 (22 nM) or PGHS-2 (88 nM) was preincubated at room temperature for 2 hours and then at 0° C. for 1 hour with varying concentrations of inhibitor in DMSO followed by the addition of [1-^14 C]arachidonic acid (50 μM) for 30 seconds at 37° C. Reactions were terminated by solvent extraction in diethyl ether/methanol/1 M citrate, pH 4.0 (30:4:1). The organic phase was spotted on a TLC plate (Amersham Corp.). The plate was developed with ethyl acetate/methylene chloride/glacial acetic acid (75:25:1) at 4° C. Radiolabeled products were quantitated with a radioactivity scanner (Bioscan, Inc., Washington, D.C.).
(§2) conducted at room temperature for 3 hours. The cyclooxygenase reaction was
(§3) initiated by the addition of 14C-arachidonic acid (50 μM) to the
(§4) incubation mixtures at 37 C for 30 seconds.
(§5) conducted at room temperature for 3 hours. The cyclooygenase reaction was
(§6) initiated by the addition of ^14 C-arachidonic acid ([…]) to the
(§7) incubation mixtures at 37° C. for 30 sec.

human PGHS-2 = target: T2, human PGHS-2 (Homo sapiens, UniProt P35354); assay: Time- and concentration-dependent inhibition of human PGHS-2, TLC assay (3 h preincubation); type: biochemical; conditions: for pIC50: PGHS-2 88 nM; for IC50 (PGHS-1)/IC50 (PGHS-2): selectivity ratio, 180 min; for inhibition of PGHS-2 (in words): table footnotes
T2 construct: made in house; host or cells: insect cells (baculovirus vectors)
T2 sequence (P35354 18-604): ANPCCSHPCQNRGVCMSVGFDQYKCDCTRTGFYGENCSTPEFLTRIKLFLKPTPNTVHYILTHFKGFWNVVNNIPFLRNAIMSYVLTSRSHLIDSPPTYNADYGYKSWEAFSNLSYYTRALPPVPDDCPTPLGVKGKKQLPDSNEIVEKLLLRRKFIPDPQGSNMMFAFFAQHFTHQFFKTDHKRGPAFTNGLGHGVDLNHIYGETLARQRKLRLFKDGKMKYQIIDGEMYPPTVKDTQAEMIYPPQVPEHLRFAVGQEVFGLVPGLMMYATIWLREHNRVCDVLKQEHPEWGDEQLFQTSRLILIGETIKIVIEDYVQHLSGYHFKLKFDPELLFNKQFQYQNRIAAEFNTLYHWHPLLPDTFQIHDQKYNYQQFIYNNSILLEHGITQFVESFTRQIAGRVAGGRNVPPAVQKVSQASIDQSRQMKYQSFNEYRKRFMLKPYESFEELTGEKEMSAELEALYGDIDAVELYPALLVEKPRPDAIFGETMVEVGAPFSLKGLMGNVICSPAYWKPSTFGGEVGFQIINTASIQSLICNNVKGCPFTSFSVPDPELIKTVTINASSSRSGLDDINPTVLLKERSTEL
Protocol: as §1, §2, §3, §4, §5, §6, §7

oCOX-1 = target: T3, oCOX-1 (Ovis aries, UniProt P05979); assay: Time- and concentration-dependent inhibition of oCOX-1 (1 h incubation); type: biochemical, ovine
T3 construct: PGHS-1 was purified from sheep seminal vesicles as described earlier; tissue Oxford Biomedical Research, Inc. (supplier of the sheep seminal vesicles); host or cells: sheep seminal vesicles
T3 sequence (P05979 25-600): T1 sequence (P05979 25-600)
Protocol: (§8) ^a IC50 values were determined by incubating several inhibitor
(§9) concentrations in DMSO with purified hCOX-2 or oCOX-1 for 1 h at rt;
(§10) assays were run in duplicate. IC50 values are average of duplicate
(§11) determinations for each test compounds.

hCOX-2 = target: T4, hCOX-2 (Homo sapiens, UniProt P35354); assay: Time- and concentration-dependent inhibition of hCOX-2 (1 h incubation); type: biochemical
T4 construct: made in house; host or cells: insect cells (baculovirus vectors)
T4 sequence (P35354 18-604): T2 sequence (P35354 18-604)
Protocol: as §8, §9, §10, §11

[1] = Table 2, 3 h at room temperature
[2] = Table 3, 1 h at rt, average of duplicates, read-out: IC50 oCOX-1
[3] = Table 3, 1 h at rt, average of duplicates, read-out: IC50 hCOX-2
[4] = Table 1, 3 h at room temperature, 50 μM 14C-arachidonic acid
[5] = Table 1, 22 nM enzyme, 50 μM 14C-arachidonic acid

| Compound | pIC50 (human PGHS-2; [1]) | IC50 (PGHS-1)/IC50 (PGHS-2) (human PGHS-2; Table 2) | pIC50 (ovine PGHS-1; Table 2, PGHS-1 22 nM) | also measured |
| --- | --- | --- | --- | --- |
| CC(=O)Oc1ccccc1SCCCCCCCC(=O)O [Compound 63, 2-Acetoxyphenyl-8-carboxyheptyl sulfide] | – | – | – | IC50 (ovine PGHS-1; Table 1, cell printed in mM): > 1 mM |
| CCCCCCSc1ccccc1OC(C)=O [Compound 53, 2-Acetoxyphenylhexyl sulfide] | 5.46 | 2.3 | 5.10 | – |
| CC#CCSc1ccccc1OC(C)=O [Compound 90, 2-Acetoxyphenyl-but-2-ynyl sulfide] | – | > 2 | < 4.46 | – |
| C#CCSc1ccccc1OC(C)=O [Compound 91, 2-Acetoxyphenyl-prop-2-ynyl sulfide] | 4.60 | 1.6 | 4.40 | – |
| CCCC#CCSc1ccccc1OC(C)=O [Compound 88, 2-Acetoxyphenylhex-2-ynyl sulfide] | 5.52 | 4.6 | 4.85 | inhibition of cyclooxygenase activity of human holoPGHS-2 (in words) (human PGHS-2; FIGS. 12 and 13, 1-16 μM): greatly inhibited |
| CCCCCCCCSc1ccccc1OC(C)=O [Compound 55, 2-Acetoxyphenyloctyl sulfide] | < 4.48 | – | < 4.48 | – |
| CCCCCCCS(=O)(=O)c1ccccc1OC(C)=O [Compound 93, 2-Acetoxyphenylheptyl sulfone] | – | – | – | inhibition of PGHS-2 (in words) (human PGHS-2): very poor inhibitor; inhibition of PGHS-1 (in words) (ovine PGHS-1): very poor inhibitor |
| CCOCCCSc1ccccc1OC(C)=O [Compound 71, 2-Acetoxyphenyl-3-ethoxypropyl sulfide] | < 4.48 | – | < 4.48 | inhibition of cyclooxygenase activity of human holoPGHS-2 (in words) (human PGHS-2; FIG. 11, 8 μM (compound 67)): very little effect |
| CCC#CCSc1ccccc1OC(C)=O [Compound 89, 2-Acetoxyphenylpent-2-ynyl sulfide] | 5.30 | 4 | 4.70 | – |
| CCCCC#CCSc1ccccc1OC(N)=O [Compound 122, 2-Carbamoyloxyphenylhept-2-ynyl sulfide] | – | – | – | pIC50 (oCOX-1): < 4.40; pIC50 (hCOX-2): < 4.40 |
| CCCCC#CCSc1ccccc1OS(C)(=O)=O [Compound 124, 2-Methylsulfonyloxyphenylhept-2-ynyl sulfide] | – | – | – | pIC50 (oCOX-1; [2]): < 4.40; pIC50 (hCOX-2; [3]): < 4.40 |
| CCCCCCC#CCSc1ccccc1OC(C)=O [Compound 110, 2-Acetoxyphenylnon-2-ynyl sulfide] | – | – | – | pIC50 (oCOX-1; [2]): 4.30; pIC50 (hCOX-2; [3]): 4.90 |
| CCCCOCCSc1ccccc1OC(C)=O [Compound 67, 2-Acetoxyphenyl-2-butoxyethyl sulfide] | 5.15 | 3 | 4.66 | inhibition of cyclooxygenase activity of human holoPGHS-2 (in words) (human PGHS-2; FIG. 11, 8 μM (compound 67)): greatly inhibited |
| CCCCCC#CCSc1ccccc1OC(C)=O [Compound 109, 2-Acetoxyphenyloct-2-ynyl sulfide] | – | – | – | pIC50 (oCOX-1; [2]): 4.48; pIC50 (hCOX-2; [3]): 5.15 |
| CSc1ccccc1OC(=O)CCl [Compound 7, 2-(α-chloroacetoxy)thioanisole] | – | – | – | pIC50 (human PGHS-2; [4]): 3.44; pIC50 (ovine PGHS-1; [5]): 3.41 |
| CC(=O)Oc1ccccc1SCC(C)C [Compound 51, 2-Acetoxyphenyl-2-methylpropyl sulfide] | 4.40 | 1.2 | 4.47 | – |
| CCCSc1ccccc1OC(C)=O [Compound 50, 2-Acetoxyphenylpropyl sulfide] | 4.18 | 1.0 | 4.18 | – |
| CCCC#CCCSc1ccccc1OC(C)=O [Compound 115, 2-Acetoxyephenylhept-3-ynyl sulfide] | – | – | – | pIC50 (oCOX-1; [2]): 4.74; pIC50 (hCOX-2; [3]): 5.19 |
| CC(=O)Oc1ccccc1SC1CCCCC1 [Compound 57, 2-Acetoxyphenylcyclohexyl sulfide] | < 4.48 | – | < 4.48 | – |
| CCCCC#CCSc1ccccc1O [Compound 82, 2-Hydroxyphenyl-hept-2-ynyl sulfide] | – | – | – | inhibition of cyclooxygenase activity of human holoPGHS-2 (in words) (human PGHS-2; FIGS. 12 and 13, 1-16 μM): very little effect; inhibition of PGHS-2 (in words) (human PGHS-2): did not inhibit; inhibition of PGHS-1 (in words) (ovine PGHS-1): did not inhibit |
| CCCCCCCC#CCSc1ccccc1OC(C)=O [Compound 111, 2-Acetoxyphenyldec-2-ynyl sulfide] | – | – | – | pIC50 (oCOX-1; [2]): < 4.30; pIC50 (hCOX-2; [3]): 4.80 |
| CCCCCCCCCSc1ccccc1OC(C)=O [Compound 56, 2-Acetoxyphenylnonyl sulfide] | < 4.48 | – | < 4.48 | – |
| CCSc1ccccc1OC(C)=O [Compound 49, 2-Acetoxyphenylethyl sulfide] | 3.70 | 1.8 | 3.43 | – |
| CSc1ccccc1OC(=O)CBr [Compound 8, 2-(α-bromoacetoxy)thioanisole] | – | – | – | pIC50 (human PGHS-2; [4]): 3.29; pIC50 (ovine PGHS-1; [5]): 3.49 |
| CSc1ccccc1OC(=O)C(F)(F)F [Compound 6] | – | – | – | inhibition at 100 µM (human PGHS-2; FIG. 8, 0.1 mM): ~35% |
| CCCCCCCSc1ccccc1O [Compound 38, 2-Hydroxyphenylheptyl sulfide] | – | – | – | inhibition of cyclooxygenase activity of human holoPGHS-2 (in words) (human PGHS-2; FIG. 9, 3 h at room temperature): very little effect; inhibition of PGHS-2 (in words) (human PGHS-2): did not inhibit; inhibition of PGHS-1 (in words) (ovine PGHS-1): did not inhibit |
| CC(=O)Oc1ccccc1SC1CCCCCC1 [Compound 58, 2-Acetoxyphenylcycloheptyl sulfide] | < 4.48 | – | < 4.48 | – |
| CC(=O)Oc1ccccc1SCCc1ccccc1 [Compound 60, 2-Acetoxyphenyl-2-phenylethyl sulfide] | – | – | – | pIC50 (human PGHS-2; [4]): 4.00 |
| CCCCC#CCSc1ccccc1OC(=O)CBr [Compound 123, 2-(α-bromoacetoxy)phenylhept-2-ynyl sulfide] | – | – | – | pIC50 (oCOX-1; [2]): 4.70; pIC50 (hCOX-2; [3]): 4.59 |
| CCCC/C=C/CSc1ccccc1OC(C)=O [Compound 75, 2-Acetoxyphenyl-trans-hept-2-enyl sulfide] | – | – | < 4.78 | inhibition at 16.5 µM (ovine PGHS-1; at 16.5 μM): ~25% |
